Results reported in PMC12421852, “AcrIF11 is a potent CRISPR-specific ADP-ribosyltransferase encoded by phage and plasmid” (mBio, 2025).

Target: T1, AcrIF11Pae2 (Escherichia coli, UniProt A0AAB0B261)
T1 construct: pET28b in E. coli BL21(DE3); 13C/15N-labelled
Assay: NMR chemical shift perturbation on NAD titration
Format: binding
Conditions: NMR structure 8DWQ is without NAD; structure sample 50 mM KPi pH 7.4, 298 K; titration conditions not stated

T1 sequence (A0AAB0B261 entry or part of it): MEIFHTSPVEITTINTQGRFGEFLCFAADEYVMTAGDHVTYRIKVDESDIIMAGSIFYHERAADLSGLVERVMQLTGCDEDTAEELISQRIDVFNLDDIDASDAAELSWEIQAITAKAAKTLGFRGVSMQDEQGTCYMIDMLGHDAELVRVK

NC(=O)c1ccc[n+]([C@@H]2O[C@H](COP(=O)(O)OP(=O)(O)OC[C@H]3O[C@@H](n4cnc5c(N)ncnc54)[C@H](O)[C@@H]3O)[C@@H](O)[C@H]2O)c1 [NAD]
NMR chemical shift perturbation on NAD titration: upon titration of cofactor NAD, the largest chemical shift perturbations occurred in the beta sheet region
